# Test results reported in patent publication US4623661A, “Lipoxygenase inhibiting compounds” (Abbott Laboratories, priority 1985, dated 1986).
# Assays:
# Format in all cases: biochemical
# 15-lipoxygenase = biological target: T1, 15-lipoxygenase (Glycine max, UniProt P08170); test: 15-lipoxygenase inhibition (15-lipoxygenase obtained from soybean); details: for inhibition at 10 µM: read-out: % Inhibition at Indicated Concentration, 15-lipoxygenase, 10 uM; for inhibition at 100 µM: read-out: % Inhibition at Indicated Concentration, 15-lipoxygenase, 100 uM
# T1 construct: 15-lipoxygenase obtained from soybean; from tissue; host or cells: soybean
# T1 sequence (P08170 1-839): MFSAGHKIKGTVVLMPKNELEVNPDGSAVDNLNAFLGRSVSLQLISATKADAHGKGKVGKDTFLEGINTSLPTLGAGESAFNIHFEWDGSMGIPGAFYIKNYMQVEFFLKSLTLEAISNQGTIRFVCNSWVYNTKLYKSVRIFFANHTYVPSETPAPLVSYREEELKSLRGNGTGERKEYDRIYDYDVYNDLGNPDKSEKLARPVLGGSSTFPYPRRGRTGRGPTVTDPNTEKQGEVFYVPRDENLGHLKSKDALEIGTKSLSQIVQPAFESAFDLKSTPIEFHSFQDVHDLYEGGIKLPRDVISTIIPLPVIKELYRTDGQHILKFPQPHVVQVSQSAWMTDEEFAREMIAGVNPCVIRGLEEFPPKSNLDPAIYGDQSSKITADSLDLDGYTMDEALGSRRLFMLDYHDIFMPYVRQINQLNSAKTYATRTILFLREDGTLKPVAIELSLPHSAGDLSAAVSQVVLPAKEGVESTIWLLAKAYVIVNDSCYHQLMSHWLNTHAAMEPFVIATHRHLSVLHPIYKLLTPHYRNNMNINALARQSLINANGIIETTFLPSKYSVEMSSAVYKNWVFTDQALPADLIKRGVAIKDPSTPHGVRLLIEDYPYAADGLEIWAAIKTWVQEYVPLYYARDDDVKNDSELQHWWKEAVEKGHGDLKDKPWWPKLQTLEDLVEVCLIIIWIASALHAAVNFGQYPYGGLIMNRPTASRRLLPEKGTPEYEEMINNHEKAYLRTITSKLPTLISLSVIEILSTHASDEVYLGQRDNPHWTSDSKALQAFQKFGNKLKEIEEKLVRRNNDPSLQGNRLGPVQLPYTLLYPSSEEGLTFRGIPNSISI
# Procedure: (§1) The compounds of this invention are potent inhibitors of 5-, 12- and 15-lipoxygenase. An assay to determine 5-lipoxygenase activity was performed in incubations containing various concentrations of the test compound and the 20,000 G supernatant from 7.5×10^6 homogenized RBL-1 cells. Reactions were initiated by the addition of radiolabeled arachidonic acid and terminated by acidification and ether extraction. Reaction products were separated from nonconverted substrate by thin layer chromatography and measured by liquid scintillatiton spectroscopy. Inhibition of 5-lipoxygenase activity was calculated as the ratio of the amounts of product formed in the presence and absence of inhibitor.
# (§2) The inhibitory activities of the compounds of this invention against 12- and 15-lipoxygenase can be determined in the foregoing assay in which 12-lipoxygenase obtained from human platelets, or 15-lipoxygenase obtained from soybean, is substituted for the 5-lipoxygenase-containing cell supernatant fraction.
# 12-lipoxygenase = biological target: T2, 12-lipoxygenase (Homo sapiens, UniProt P18054); test: 12-lipoxygenase inhibition (12-lipoxygenase obtained from human platelets); details: for inhibition at 10 µM: read-out: % Inhibition at Indicated Concentration, 12-lipoxygenase, 10 uM; for inhibition at 100 µM: read-out: % Inhibition at Indicated Concentration, 12-lipoxygenase, 100 uM
# T2 construct: 12-lipoxygenase obtained from human platelets; from tissue; host or cells: human platelets
# T2 sequence (P18054 1-663): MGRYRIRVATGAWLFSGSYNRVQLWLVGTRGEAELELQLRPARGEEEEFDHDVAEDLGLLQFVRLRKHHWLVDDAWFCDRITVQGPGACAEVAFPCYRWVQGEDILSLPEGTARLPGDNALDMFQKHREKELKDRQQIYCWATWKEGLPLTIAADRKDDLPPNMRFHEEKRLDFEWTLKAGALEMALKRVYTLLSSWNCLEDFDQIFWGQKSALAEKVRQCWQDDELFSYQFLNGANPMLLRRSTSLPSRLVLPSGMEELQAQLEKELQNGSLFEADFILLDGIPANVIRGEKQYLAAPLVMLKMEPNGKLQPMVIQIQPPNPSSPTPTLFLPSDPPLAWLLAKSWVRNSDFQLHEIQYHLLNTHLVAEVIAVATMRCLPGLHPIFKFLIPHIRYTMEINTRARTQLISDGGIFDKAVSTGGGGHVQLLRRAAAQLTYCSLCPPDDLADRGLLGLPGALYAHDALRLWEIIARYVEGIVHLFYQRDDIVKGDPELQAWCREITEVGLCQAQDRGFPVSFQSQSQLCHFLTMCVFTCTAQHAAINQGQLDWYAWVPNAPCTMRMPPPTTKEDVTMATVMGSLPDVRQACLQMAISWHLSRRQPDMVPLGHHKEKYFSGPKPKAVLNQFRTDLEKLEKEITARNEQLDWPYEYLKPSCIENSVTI
# Procedure: as §1, §2
# 5-lipoxygenase = biological target: T3, 5-lipoxygenase (Rattus norvegicus, UniProt P12527); test: 5-Lipoxygenase IC50 determination (20,000 G supernatant from homogenized RBL-1 cells, radiolabeled arachidonic acid); details: RBL-1 cell 20,000 G supernatant; linear regression of % inhibition vs log concentration
# T3 construct: 20,000 G supernatant from 7.5×10^6 homogenized RBL-1 cells; endogenous in cells; host or cells: RBL-1 cells (20,000 G supernatant of homogenate)
# T3 sequence (P12527 1-673): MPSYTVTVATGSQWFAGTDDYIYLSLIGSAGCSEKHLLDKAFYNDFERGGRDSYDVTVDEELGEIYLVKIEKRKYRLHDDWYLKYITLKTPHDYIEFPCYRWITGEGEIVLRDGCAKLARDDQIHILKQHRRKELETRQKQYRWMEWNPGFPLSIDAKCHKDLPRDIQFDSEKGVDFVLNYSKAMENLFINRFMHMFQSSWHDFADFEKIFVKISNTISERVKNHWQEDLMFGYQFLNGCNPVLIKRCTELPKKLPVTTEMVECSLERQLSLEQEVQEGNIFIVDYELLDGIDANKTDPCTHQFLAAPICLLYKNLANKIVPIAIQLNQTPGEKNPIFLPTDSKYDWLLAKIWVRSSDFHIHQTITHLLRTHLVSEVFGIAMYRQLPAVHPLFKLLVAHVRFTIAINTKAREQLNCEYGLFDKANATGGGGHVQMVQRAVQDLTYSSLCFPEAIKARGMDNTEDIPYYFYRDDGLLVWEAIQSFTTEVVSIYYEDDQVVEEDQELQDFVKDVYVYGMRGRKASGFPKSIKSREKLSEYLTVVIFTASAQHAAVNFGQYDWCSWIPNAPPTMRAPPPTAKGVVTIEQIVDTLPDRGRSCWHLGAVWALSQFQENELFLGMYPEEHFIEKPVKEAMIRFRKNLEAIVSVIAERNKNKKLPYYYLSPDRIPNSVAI
# Procedure: Reactions were initiated by the addition of radiolabeled arachidonic acid and terminated by acidification and ether extraction. Reaction products were separated from nonconverted substrate by thin layer chromatography and measured by liquid scintillatiton spectroscopy. Inhibition of 5-lipoxygenase activity was calculated as the ratio of the amounts of product formed in the presence and absence of inhibitor.
inhibition at 10 µM (15-lipoxygenase) [%],inhibition at 100 µM (15-lipoxygenase) [%],inhibition at 10 µM (12-lipoxygenase) [%],inhibition at 100 µM (12-lipoxygenase) [%],Compound,IC50 (5-lipoxygenase) [µM]
0,30,86,97,"O=C(NO)c1ccc(-c2ccccc2)cc1 [Example 7, 4-biphenyl hydroxamic acid]",4.1
43,85,99,96,"CN(O)C(=O)C=Cc1cccc(-c2ccccc2)c1 [Example 2, N-methyl-3-(3-biphenyl)-acrylohydroxamic acid]",–
52,74,63,68,"CN(O)C(=O)C=Cc1ccc(-c2ccccc2)cc1 [Example 1, N-Methyl 3-(4-biphenyl)acrylohydroxamic acid]",–

# The next lines start with the molecule.
Compound,inhibition at 10 µM (15-lipoxygenase) [%],inhibition at 100 µM (15-lipoxygenase) [%],inhibition at 10 µM (12-lipoxygenase) [%],inhibition at 100 µM (12-lipoxygenase) [%],IC50 (5-lipoxygenase) [µM]
"O=C(NO)c1ccc2ccc3ccccc3c2c1 [Example 13, 3-Phenanthryl hydroxamic acid]",25,39,–,–,1.2
"O=C(NO)c1cccc(-c2ccccc2)c1 [Example 8, 3-biphenyl hydroxamic acid]",33,33,–,–,6
"O=C(NO)c1ccc2c(ccc3ccccc32)c1 [Example 12, 2-Phenanthrylhydroxamic acid]",–,–,–,–,1.9
